# Experimental data taken from patent US11524945B2, “Compounds for treating ILK-mediated diseases” (The Cleveland Clinic Foundation, priority 2018, dated 2022).
# Where two headings read alike, the source gives them in different places.
# Legend:
# [1] = Permeability in Caco2 cell line; format: in vitro ADME; conditions: human; for efflux ratio / Papp B→A / Papp A→B: Caco-2; for efflux ratio: Caco2; for Papp B→A: Caco2, B-A; for Papp A→B: Caco2, A-B
# [2] = Protein binding in human plasma; format: in vitro ADME
# [3] = Protein binding in rat plasma; format: in vitro ADME
# [4] = Protein binding in mouse plasma; format: in vitro ADME
# purified recombinant ILK = purified recombinant ILK (Homo sapiens (Human), UniProt Q13418); assay: ILK binding affinity, EnSpire fluorescence intensity; conditions: for binding to purified ILK: fluorescence-based method; for Binding Difference ILK (Kd)/EGFR (Kd) / Kd: EnSpire fluorescence intensity; for Kd: read-out: ILK - Binding affinity
# purified recombinant ILK, sequence (Q13418 whole entry): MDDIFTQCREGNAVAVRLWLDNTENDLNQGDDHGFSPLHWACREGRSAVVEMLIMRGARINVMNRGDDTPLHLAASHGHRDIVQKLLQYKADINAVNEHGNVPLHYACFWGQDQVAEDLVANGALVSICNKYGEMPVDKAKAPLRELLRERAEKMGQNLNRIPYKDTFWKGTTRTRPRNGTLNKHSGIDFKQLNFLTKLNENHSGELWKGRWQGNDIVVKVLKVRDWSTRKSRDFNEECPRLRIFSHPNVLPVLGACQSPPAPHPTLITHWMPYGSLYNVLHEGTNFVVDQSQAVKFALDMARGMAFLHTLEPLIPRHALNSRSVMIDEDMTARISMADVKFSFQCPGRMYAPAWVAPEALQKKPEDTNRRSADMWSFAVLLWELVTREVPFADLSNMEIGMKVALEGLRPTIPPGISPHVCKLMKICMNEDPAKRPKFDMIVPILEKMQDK
# ILK = ILK (Homo sapiens (Human), UniProt Q13418); assay: ILK binding affinity, Nanotemper
# ILK, sequence (Q13418 whole entry): as above
# EGFR = EGFR (Homo sapiens (Human), UniProt P00533); assay: EGFR binding affinity, Nanotemper
# EGFR, sequence (P00533 25-1210): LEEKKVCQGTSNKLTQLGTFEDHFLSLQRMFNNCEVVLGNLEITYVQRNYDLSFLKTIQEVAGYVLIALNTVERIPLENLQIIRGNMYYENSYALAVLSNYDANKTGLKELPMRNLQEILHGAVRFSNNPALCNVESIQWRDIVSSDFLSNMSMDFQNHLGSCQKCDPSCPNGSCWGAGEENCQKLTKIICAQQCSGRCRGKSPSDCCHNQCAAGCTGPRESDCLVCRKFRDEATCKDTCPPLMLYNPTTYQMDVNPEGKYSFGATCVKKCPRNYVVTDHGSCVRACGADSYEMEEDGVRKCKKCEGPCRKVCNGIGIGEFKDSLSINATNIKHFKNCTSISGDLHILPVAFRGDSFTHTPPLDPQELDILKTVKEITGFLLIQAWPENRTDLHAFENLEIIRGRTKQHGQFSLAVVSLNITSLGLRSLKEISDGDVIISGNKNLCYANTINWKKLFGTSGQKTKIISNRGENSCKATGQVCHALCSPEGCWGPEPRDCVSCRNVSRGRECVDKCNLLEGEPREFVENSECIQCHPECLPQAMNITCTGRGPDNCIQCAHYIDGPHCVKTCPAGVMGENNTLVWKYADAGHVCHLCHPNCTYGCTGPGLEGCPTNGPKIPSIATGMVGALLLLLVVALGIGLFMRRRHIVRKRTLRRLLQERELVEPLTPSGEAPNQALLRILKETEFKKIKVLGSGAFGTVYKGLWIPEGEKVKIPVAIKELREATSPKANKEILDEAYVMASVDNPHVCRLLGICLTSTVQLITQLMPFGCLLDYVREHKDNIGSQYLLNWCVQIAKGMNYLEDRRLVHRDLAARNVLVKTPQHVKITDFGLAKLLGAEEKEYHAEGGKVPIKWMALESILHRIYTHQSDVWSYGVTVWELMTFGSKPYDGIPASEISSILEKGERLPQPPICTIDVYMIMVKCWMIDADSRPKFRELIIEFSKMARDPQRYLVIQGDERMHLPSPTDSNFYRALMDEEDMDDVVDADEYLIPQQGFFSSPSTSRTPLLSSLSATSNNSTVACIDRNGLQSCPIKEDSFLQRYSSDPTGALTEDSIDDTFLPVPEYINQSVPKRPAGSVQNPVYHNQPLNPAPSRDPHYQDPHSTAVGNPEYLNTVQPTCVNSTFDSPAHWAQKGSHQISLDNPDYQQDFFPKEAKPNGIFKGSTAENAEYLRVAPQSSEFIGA
# CYP 2C8 = CYP 2C8 (Homo sapiens (Human), UniProt P10632); assay: CYP inhibition in human liver microsomes, 2C8; format: in vitro ADME
# CYP 2C8, sequence (P10632 whole entry): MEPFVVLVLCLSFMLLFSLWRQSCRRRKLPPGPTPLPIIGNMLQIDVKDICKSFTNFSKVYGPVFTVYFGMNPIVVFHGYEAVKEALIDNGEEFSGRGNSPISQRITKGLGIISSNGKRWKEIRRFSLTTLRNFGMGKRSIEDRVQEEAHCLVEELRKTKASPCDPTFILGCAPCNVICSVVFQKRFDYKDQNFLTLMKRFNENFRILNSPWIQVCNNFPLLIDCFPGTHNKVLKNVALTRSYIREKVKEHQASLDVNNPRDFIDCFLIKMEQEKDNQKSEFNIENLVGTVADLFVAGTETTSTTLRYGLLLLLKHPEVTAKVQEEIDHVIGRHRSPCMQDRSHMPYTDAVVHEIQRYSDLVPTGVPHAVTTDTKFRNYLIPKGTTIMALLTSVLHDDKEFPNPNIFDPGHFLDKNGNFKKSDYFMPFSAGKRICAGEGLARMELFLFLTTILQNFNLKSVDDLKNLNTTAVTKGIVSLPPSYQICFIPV
# CYP 2A6 = CYP 2A6 (Homo sapiens (Human), UniProt P11509); assay: CYP inhibition in human liver microsomes, 2A6; format: in vitro ADME
# CYP 2A6, sequence (P11509 whole entry): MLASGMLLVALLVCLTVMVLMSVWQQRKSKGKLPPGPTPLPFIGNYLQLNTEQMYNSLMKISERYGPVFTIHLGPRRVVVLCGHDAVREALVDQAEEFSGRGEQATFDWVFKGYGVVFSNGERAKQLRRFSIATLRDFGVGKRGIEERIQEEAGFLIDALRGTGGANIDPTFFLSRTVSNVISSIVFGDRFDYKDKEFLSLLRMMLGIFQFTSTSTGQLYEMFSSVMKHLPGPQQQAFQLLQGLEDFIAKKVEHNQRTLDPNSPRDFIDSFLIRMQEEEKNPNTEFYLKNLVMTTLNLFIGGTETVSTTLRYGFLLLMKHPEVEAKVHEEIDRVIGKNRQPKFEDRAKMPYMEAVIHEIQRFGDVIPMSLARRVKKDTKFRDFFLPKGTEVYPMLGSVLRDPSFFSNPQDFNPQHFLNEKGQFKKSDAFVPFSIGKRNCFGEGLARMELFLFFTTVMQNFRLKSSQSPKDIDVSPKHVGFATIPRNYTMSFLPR
# HepG2 cells = assay: Mitochondrial toxicity in HepG2 cells; format: cell-based; conditions: HepG2 cells; for Fold change in IC50: Glucose vs Galactose; for IC50: Homo sapiens
# Stability in rat plasma = format: in vitro ADME
# [5] = Stability in PBS at pH 7.4; format: physicochemical
# Stability in SIF = format: physicochemical
# [6] = Stability in mouse plasma; format: in vitro ADME
# [7] = Stability in human plasma; format: in vitro ADME
# [8] = Solubility in PBS at pH 7.4; format: physicochemical; conditions: aqueous buffer
# [9] = Caco-2, Caco2, AP-BL, read-out: Recovery (%)AP-BL
# [10] = Caco-2, Caco2, BL-AP, read-out: Recovery (%)BL-AP
# [11] = Nanotemper, read-out: ILK - Binding affinity
# [12] = Nanotemper, read-out: EGFR - Binding affinity
# [13] = Galactose, read-out: IC50 (μM)_Galactose
# [14] = Glucose, read-out: IC50 (μM)_Glucose
smiles,measurement,setting,value
COc1cc2nc(N3CCN(C(=O)c4ccco4)CC3)nc(N)c2cc1OC [Prazosin],recovery,[1]; [9],85.1%
same,recovery,[1]; [10],99%
same,efflux ratio,[1],2.41
same,Papp B→A,[1],30.1 ×10⁻⁶ cm/s
"CC(=O)N1CCN(c2ccc(OCC3COC(Cn4ccnc4)(c4ccc(Cl)cc4Cl)O3)cc2)CC1 (stereo not drawn) [Ketoconazole, reference compound]",% Bound,[2],98.33%
same,% Recovery,[2],101.01%
same,% Bound,[3],99.63%
same,% Recovery,[3],100.83%
same,% Bound,[4],99.33%
same,% Recovery,[4],104.25%
"CN1Cc2c(ccc3c2OCO3)C2C(O)Cc3cc4c(cc3C21)OCO4 (stereo not drawn) [Chelidonine, reference compound]",binding to purified ILK,purified recombinant ILK,no detectable binding
CC(C)NCC(O)COc1cccc2ccccc12 (stereo not drawn) [Propranolol],recovery,[1]; [9],60.8%
same,recovery,[1]; [10],80%
same,efflux ratio,[1],0.82
same,Papp A→B,[1],19.5 ×10⁻⁶ cm/s
same,Papp B→A,[1],15.9 ×10⁻⁶ cm/s
C#Cc1cc(Nc2ncnc3cc(OCCOC)c(OCCOC)cc23)cc(OCCOCC)c1 [Compound 8],Binding Difference ILK (Kd)/EGFR (Kd),ILK; Nanotemper,0.1043
same,Kd,"ILK; Nanotemper (Table 1), read-out: KD to ILK",~0.92 µM
same,Kd,ILK; [11],0.922 µM
same,Kd,"EGFR; Nanotemper (Table 1), read-out: KD to EGFR",~8.84 µM
same,Kd,EGFR; [12],8.84 µM
"C=C[C@H]1C[N@@]2CC[C@H]1C[C@@H]2[C@@H](O)c1ccnc2ccc(OC)cc12 [Quinidine, reference compound]",IC50,CYP 2C8,3.72 µM
C[C@H]1O[C@@H](O[C@H]2[C@@H](O)C[C@H](O[C@H]3[C@@H](O)C[C@H](O[C@H]4CC[C@@]5(C)[C@H](CC[C@@H]6[C@@H]5C[C@@H](O)[C@]5(C)[C@@H](C7=CC(=O)OC7)CC[C@]65O)C4)O[C@@H]3C)O[C@@H]2C)C[C@H](O)[C@@H]1O [Digoxin],recovery,[1]; [9],87.9%
same,recovery,[1]; [10],96.5%
same,efflux ratio,[1],27
same,Papp A→B,[1],0.61 ×10⁻⁶ cm/s
same,Papp B→A,[1],16.6 ×10⁻⁶ cm/s
"N[C@@H]1C[C@H]1c1ccccc1 (racemic) [Tranylcypromine, reference compound]",IC50,CYP 2A6,0.69 µM
C#Cc1cc(Nc2ncnc3cc(OCCOC)c(OCCOC)cc23)cc(OCCOC)c1 [Compound 7],Kd,ILK; [11],2.44 µM
CCc1nn(CCCN2CCN(c3cccc(Cl)c3)CC2)c(=O)n1CCOc1ccccc1 [Nefazodone],Fold change in IC50,HepG2 cells,11.33
same,IC50,HepG2 cells; [13],6.82 µM
same,IC50,HepG2 cells; [14],77.2 µM
"CC[C@H](C)C(=O)O[C@H]1C[C@@H](C)C=C2C=C[C@H](C)[C@H](CC[C@@H]3C[C@@H](O)CC(=O)O3)[C@H]21 [Mevinolin, reference compound]",Remaining Percentage (%),Stability in rat plasma; 0 min,100.00%
same,Remaining Percentage (%),Stability in rat plasma; 15 min,3.78%
same,Remaining Percentage (%),Stability in rat plasma; 30 min,0.00%
same,Remaining Percentage (%),Stability in rat plasma; 45 min,0.00%
same,Remaining Percentage (%),Stability in rat plasma; 60 min,0.00%
same,Remaining Percentage (%),Stability in rat plasma; 120 min,0.00%
C[C@@H]1CC[C@@]2(OC1)O[C@H]1[C@@H](O)[C@H]3[C@@H]4CC[C@H]5C[C@@H](O[C@@H]6O[C@H](CO)[C@H](O[C@@H]7O[C@H](CO)[C@@H](O)[C@H](O[C@@H]8OC[C@@H](O)[C@H](O)[C@H]8O)[C@H]7O[C@@H]7O[C@H](CO)[C@H](O)[C@H](O[C@@H]8O[C@H](CO)[C@@H](O)[C@H](O)[C@H]8O)[C@H]7O)[C@H](O)[C@H]6O)[C@H](O)C[C@]5(C)[C@H]4CC[C@]3(C)[C@H]1[C@@H]2C [Digitonin],Fold change in IC50,HepG2 cells,2.40
same,IC50,HepG2 cells; [13],1.79 µM
same,IC50,HepG2 cells; [14],4.3 µM
"CC1=NN(C(=O)CC(=O)Nc2ccc(C)cc2)C(=O)C1/N=N/c1cccc(C(=O)O)c1 (stereo not drawn) [QLT0267-like compound (QLT0267), reference compound]",binding to purified ILK,purified recombinant ILK,no detectable binding
"O=C(O)CCCc1ccc(N(CCCl)CCCl)cc1 [Chlorambucil, reference compound]",Remaining Percentage (%),"[5]; PBS pH 7.4, 0 min",100.00%
same,Remaining Percentage (%),"[5]; PBS pH 7.4, 30 min",37.17%
same,Remaining Percentage (%),"[5]; PBS pH 7.4, 60 min",11.53%
same,Remaining Percentage (%),"[5]; PBS pH 7.4, 120 min",2.35%
same,Remaining Percentage (%),"[5]; PBS pH 7.4, 180 min",0.09%
same,Remaining Percentage (%),"[5]; PBS pH 7.4, 240 min",0.03%
same,Remaining Percentage (%),Stability in SIF; 0 min,100.00%
same,Remaining Percentage (%),Stability in SIF; 30 min,58.85%
same,Remaining Percentage (%),Stability in SIF; 60 min,33.12%
same,Remaining Percentage (%),Stability in SIF; 120 min,8.26%
same,Remaining Percentage (%),Stability in SIF; 180 min,2.57%
same,Remaining Percentage (%),Stability in SIF; 240 min,0.79%
"CNC(=O)CCc1cc(-c2ccc(-c3ccc(C(F)(F)F)cc3)cc2)n(-c2ccc(N3CCNCC3)cc2)n1 [Compound 22, reference compound]",binding to purified ILK,purified recombinant ILK,no detectable binding
"CC(C)[N+](C)(CCOC(=O)C1c2ccccc2Oc2ccccc21)C(C)C [Propantheline, reference compound]",Remaining Percentage (%),[6]; 0 min,100.00%
same,Remaining Percentage (%),[6]; 15 min,74.15%
same,Remaining Percentage (%),[6]; 30 min,64.03%
same,Remaining Percentage (%),[6]; 45 min,48.07%
same,Remaining Percentage (%),[6]; 60 min,37.61%
same,Remaining Percentage (%),[6]; 120 min,14.60%
same,Remaining Percentage (%),[7]; 0 min,100.00%
same,Remaining Percentage (%),[7]; 15 min,54.01%
same,Remaining Percentage (%),[7]; 30 min,26.58%
same,Remaining Percentage (%),[7]; 45 min,9.84%
same,Remaining Percentage (%),[7]; 60 min,3.10%
same,Remaining Percentage (%),[7]; 120 min,0.13%
C#Cc1cc(C#C)cc(Nc2ncnc3cc(OC)c(OC)cc23)c1 [Compound 4],Binding Difference ILK (Kd)/EGFR (Kd),purified recombinant ILK,1.34
same,Kd,purified recombinant ILK,1.54 µM
"CC(=O)[C@H]1CC[C@H]2[C@@H]3CCC4=CC(=O)CC[C@]4(C)[C@H]3CC[C@]12C [Progesterone, reference compound]",solubility,[8],13.9 µM
C#Cc1cc(Nc2ncnc3cc(OCCOC)c(OCCOC)cc23)ccc1C [Erlotinib-4-methylphenyl analog (E4ME)],Binding Difference ILK (Kd)/EGFR (Kd),purified recombinant ILK,2.075
same,Kd,purified recombinant ILK,1.55 µM
C#Cc1cc(Nc2ncnc3cc(OCCOC)ccc23)cc(OCCOC)c1 [Compound 1 New],Binding Difference ILK (Kd)/EGFR (Kd),ILK; Nanotemper,0.5414
same,Kd,ILK; [11],6.85 µM
same,Kd,EGFR; [12],12.7 µM
